Measurements from US9808527B2, “Methods and compositions for treating HIV infections” (priority 2006, dated 2017).

melting point: 90 to 93 °C
Structure (SMILES): CC(C)CN(C[C@@H](O)[C@H](Cc1ccccc1)NC(=O)OC1CO[C@H]2OCCC12)S(=O)(=O)c1cccc(O)c1 (stereo partly shown)
